# “Also recorded” adds a separate entry of the source. Like-named read-outs stand apart in the source and are kept apart here.
# Tests used:
# Type in all cases: physicochemical
# [1] = Isothermal degradation by TGA in the presence of oxygen; settings: 60 minutes
# Procedure: (§1) Materials and Methods: Cannabidiol (CBD) was purchased from EcoGen BioSciences and used as received. Cannabigerol (CBG) was purchased from Mile High Labs, Inc and used as received. All other chemicals were purchased from Sigma Aldrich and used without further purification unless otherwise noted. Unless otherwise indicated, ^1H NMR was collected using a Bruker AVANCE 500 MHz instrument. Thermo Gravimetric Analysis was conducted using a TA Instruments TGA Q-500 and DSC was collected using a TA Instruments DSC Q-20. GPC was taken using a WATERS GPC equipped with a 1515 HPLC Pump and Waters 717Plus Autoinjector. Ultra Performance Liquid Chromatograph tandem Mass Spectrometry (UPLC/MS/MS) was conducted using a Waters Acquity UPLC-TQD equipped with a PDA detector.
# Isothermal degradation: Samples were heated in pre-tared pans while in the presence of oxygen to either 150, 160, 180 or 220° C. at a heating rate of 10° C./minute. They were left at the high temperature for 60 minutes. The degradation rate was determined from the slope of the weight % vs Time plots.
# [2] = Non-isothermal thermogravimetric analysis (TGA), onset of thermal degradation
# Procedure: as §1
# Thermogravimetric Analysis (TGA): Non-Isothermal degradation: Samples were heated in pre-tared platinum pans under nitrogen atmosphere to 700° C. at a heating rate of 10° C./minute.
# [3] = Heat induced by-product analysis (open vials, 175° C., 30 minutes, convection oven; NMR, UPLC/MS/MS); settings: for remaining residue after heating: 100 mg sample, open vial, convection oven; for remaining residue after heating / NMR analysis of the sample residues after heating / amount of by-product formation (LC/MS): 175° C., 30 minutes
# Procedure: Heat induced by-product analysis experiment: Open vials containing 100 mg of CBD, CBD-Diacetate, and Poly(CBD) were heated at 175° C. for 30 minutes in a laboratory convection oven. After heating, the remaining residue was weighed at 89.64 mg, 91.35 mg, and 99.86 mg for each compound, respectively. Samples were then analyzed using ^1H NMR. […] Ultra performance liquid chromatograph tandem mass spectrometry (UPLC/MS/MS) was conducted to compare formed by-products against nine known cannabinoid standards.
# Popular types of consumer cannabis products include tinctures, vaporizer liquids, and baked foods, while potential pharmaceutical products include oil extracts, solutions, and tablet. In each case, cannabinoids within the products are subjected to elevated temperatures for short periods of time during manufacturing or, in the case of vaporizer liquids, when being consumed. FIGS. 5-6 show the rates of degradation after short-term exposure to temperatures from 150-220° C. Table 1 includes the values of onset temperatures for thermal degradation and degradation rates for each compound. The phytocannabinoids degraded at rates from 0.2 wt % per minute to ˜10 wt % per minute at 150° C. and 220° C., respectively. Thermal degradation of both poly(cannabinoid)s remained less than 0.1 wt % over the same range, stabilizing the phytocannabinoid. Open vials containing 100 mg samples of CBD, CBD-diacetate, and poly(CBD-adipate) were heated at 175° C. in a laboratory convection oven for 30 minutes, after which 89.64 mg, 91.35, and 99.86 mg remained of each sample, respectfully. […]. Conversion of phytocannabinoids to poly(cannabinoid)s offers a preservative effect, eliminating the production of additional cannabinoids.
# [4] = nitrogen atmosphere, heated to 700° C. at 10° C./minute
# [5] = heated under the same conditions after purging thoroughly with argon
Compound,Degradation rate from isothermal TGA ([1]; 150° C.),Degradation rate from isothermal TGA ([1]; 160° C.),Degradation rate from isothermal TGA ([1]; 180° C.),Degradation rate from isothermal TGA ([1]; 220° C.),"Td, onset for thermal degradation according to non-isothermal TGA [2, 4]","extrapolated onset degradation temperature (TGA) ([2]; non-isothermal TGA, FIGS. 3-4)",remaining residue after heating [3],NMR analysis of the sample residues after heating [3],amount of by-product formation (LC/MS) [3],NMR analysis of the sample residues after heating ([3]; listed as CBD-diacetate),"Δ8-THC detected using 1H NMR [3, 5]","Δ9-THC detected using 1H NMR [3, 5]","Td, onset for thermal degradation according to non-isothermal TGA [2]",extrapolated onset degradation temperature (TGA) [2]
"C=C(C)[C@@H]1CCC(C)=C[C@H]1c1c(OC(C)=O)cc(CCCCC)cc1OC(C)=O [CBD-Diacetate, Cannabidiol-Diacetate]",0.54 weight % loss per minute,0.54 weight % loss per minute,0.84 weight % loss per minute,5.65 weight % loss per minute,185 °C,185 °C,91.35 mg,New peaks formed,25.32%,formation of additional compounds,,,,
"C=C(C)[C@@H]1CCC(C)=C[C@H]1c1c(O)cc(CCCCC)cc1O [CBD, cannabidiol]",0.18 weight % loss per minute,0.43 weight % loss per minute,0.94 weight % loss per minute,9.09 weight % loss per minute,184 °C,184 °C,89.64 mg,New peaks formed; also recorded: formation of additional compounds,10.68%,,0.21%,0.16%,,
"CCCCCc1cc(OC(C)=O)c(C/C=C(\C)CCC=C(C)C)c(OC(C)=O)c1 [CBG-Diacetate, Cannabigerol-Diacetate]",0.08 weight % loss per minute,0.11 weight % loss per minute,0.49 weight % loss per minute,1.92 weight % loss per minute,223 °C,,,,,,,,,
"CCCCCc1cc(O)c(C/C=C(\C)CCC=C(C)C)c(O)c1 [CBG, cannabigerol]",,,,,,,,,,,,,191 °C,191 °C

# — patent US12491199B2, “Polycannabinoids, compounds, compositions and methods of use” (priority 2020, dated 2025)
